Test results from US8796466B2, “Hepatitis C virus inhibitors” (Bristol-Myers Squibb Company, priority 2009, dated 2014).
Where two headings read alike, the source gives them in different places.

Tested on: HCV 1b genotype
Assay: HCV Replicon assay (HCV 1b genotype)
Format: cell-based, Hepatitis C virus
Details: HCV 1b genotype replicon
Description: An HCV Replicon assay was utilized in the present disclosure, and was prepared, conducted and validated as described in commonly owned PCT/US2006/022197 and in O'Boyle et. al. Antimicrob Agents Chemother. 2005 April; 49(4):1346-53. Assay methods incorporating luciferase reporters have also been used as described (Apath.com).
HCV-neo replicon cells and replicon cells containing mutations in the NS5A region were used to test the currently described family of compounds. The compounds were determined to have more than 10-fold less inhibitory activity on cells containing mutations than wild-type cells. Thus, the compounds of the present disclosure can be effective in inhibiting the function of the HCV NS5A protein and are understood to be as effective in combinations as previously described in application PCT/US2006/022197 and commonly owned WO/04014852. Further, the compounds of the present disclosure can be effective against the HCV 1b genotype. It should also be understood that the compounds of the present disclosure can inhibit multiple genotypes of HCV. […] In one embodiment, compounds of the present disclosure are inhibitory versus 1a, 1b, 2a, 2b, 3a, 4a, and 5a genotypes.

[1] = Hepatitis C virus, class symbol, read-out: Range (EC50 values against HCV 1b)
[2] = Hepatitis C virus, Effective 50% inhibitory concentration, read-out: 1b EC50

| Compound | EC50 [1] [nM] | EC50 [2] [nM] | EC50 (class symbol, read-out: Range (EC50 values against HCV 1b)) [nM] |
| --- | --- | --- | --- |
| CCNC(=O)N[C@@H](C(=O)N1CCC[C@H]1c1nc(-c2ccc(COCc3cccc(-c4c[nH]c([C@@H]5CCCN5C(=O)[C@H](NC(=O)NCC)c5ccccc5)n4)c3)cc2)c[nH]1)c1ccccc1 [OL-24, 1-ethyl-3-((1R)-2-((2S)-2-(4-(3-(((4-(2-((2S)-1-((2R)-2-((ethylcarbamoyl)amino)-2-phenylacetyl)-2-pyrrolidinyl)-1H-imidazol-4-yl)benzyl)oxy)methyl)phenyl)-1H-imidazol-2-yl)-1-pyrrolidinyl)-2-oxo-1-phenylethyl)urea] | 0.002 to 0.099 | – | – |
| CN(C)[C@@H](C(=O)N1CCC[C@H]1c1ncc(-c2ccc(COCc3ccc(-c4cnc([C@@H]5CCCN5C(=O)[C@@H](c5ccccc5)N(C)C)[nH]4)cc3)cc2)[nH]1)c1ccccc1 [OL-14, (1R)-2-((2S)-2-(4-(4-(((4-(2-((2S)-1-((2R)-2-(dimethylamino)-2-phenylacetyl)-2-pyrrolidinyl)-1H-imidazol-5-yl)benzyl)oxy)methyl)phenyl)-1H-imidazol-2-yl)-1-pyrrolidinyl)-N,N-dimethyl-2-oxo-1-phenylethanamine] | 0.1 to 0.99 | – | – |
| COC(=O)N[C@@H](C(=O)N1CC(F)(F)C[C@H]1c1ncc(-c2ccc(C#Cc3ccc(-c4cnc([C@@H]5CC(F)(F)CN5C(=O)[C@H](NC(=O)OC)C5CCOCC5)[nH]4)cc3)cc2)[nH]1)C1CCOCC1 [Example N4, dimethyl (ethyne-1,2-diylbis(4,1-phenylene-1H-imidazole-5,2-diyl((2S)-4,4-difluoropyrrolidine-2,1-diyl)((1R)-2-oxo-1-(tetrahydro-2H-pyran-4-yl)ethane-2,1-diyl)))biscarbamate] | 10 to 350 | 0.18 | – |
| COC(=O)N[C@H](C(=O)N1C[C@@H](C)C[C@H]1c1ncc(-c2ccc([C@H]3C[C@@H]3c3ccc(-c4cnc([C@@H]5C[C@H](C)CN5C(=O)[C@@H](NC(=O)OC)C(C)C)[nH]4)cc3)cc2)[nH]1)C(C)C [Example M9.7, methyl ((1S)-1-(((2S,4S)-2-(4-(4-((1S,2S)-2-(4-(2-((2S,4S)-1-((2S)-2-((methoxycarbonyl)amino)-3-methylbutanoyl)-4-methyl-2-pyrrolidinyl)-1H-imidazol-4-yl)phenyl)cyclopropyl)phenyl)-1H-imidazol-2-yl)-4-methyl-1-pyrrolidinyl)carbonyl)-2-methylpropyl)carbamate] | 0.002 to 0.099 | – | – |
| COC(=O)N[C@H](C(=O)N1CC(F)(F)C[C@H]1c1ncc(-c2ccc(C#Cc3ccc(-c4cnc([C@@H]5CC(F)(F)CN5C(=O)[C@H](NC(=O)OC)C5CCOCC5)[nH]4)cc3)cc2)[nH]1)C1CCOCC1 [Example N3, methyl ((1R)-2-((2S)-2-(5-(4-((4-(2-((2S)-4,4-difluoro-1-((2S)-2-((methoxycarbonyl)amino)-2-(tetrahydro-2H-pyran-4-yl)acetyl)pyrrolidin-2-yl)-1H-imidazol-5-yl)phenyl)ethynyl)phenyl)-1H-imidazol-2-yl)-4,4-difluoropyrrolidin-1-yl)-2-oxo-1-(tetrahydro-2H-pyran-4-yl)ethyl)carbamate] | 10 to 350 | 0.25 | – |
| COC(=O)N[C@H](C(=O)N1[C@@H]2C[C@@H]2C[C@H]1c1nc(Cl)c(-c2ccc(C#Cc3ccc(-c4[nH]c([C@@H]5C[C@H]6C[C@H]6N5C(=O)[C@@H](NC(=O)OC)C(C)C)nc4Cl)cc3)cc2)[nH]1)C(C)C [Example M9, methyl ((1S)-1-(((1R,3S,5R)-3-(4-chloro-5-(4-((4-(4-chloro-2-((1R,3S,5R)-2-((2S)-2-((methoxycarbonyl)amino)-3-methylbutanoyl)-2-azabicyclo[3.1.0]hex-3-yl)-1H-imidazol-5-yl)phenyl)ethynyl)phenyl)-1H-imidazol-2-yl)-2-azabicyclo[3.1.0]hex-2-yl)carbonyl)-2-methylpropyl)carbamate] | 0.002 to 0.099 | – | – |
| COC(=O)N[C@@H](C(=O)N1CCC[C@H]1c1nc(-c2ccc(C#Cc3ccc(-c4c[nH]c([C@@H]5CCCN5C(=O)[C@H](NC(=O)OC)c5ccccc5)n4)cc3)cc2)c[nH]1)c1ccccc1 [Example M2, dimethyl (1,2-ethynediylbis(4,1-phenylene-1H-imidazole-4,2-diyl(2S)-2,1-pyrrolidinediyl((1R)-2-oxo-1-phenyl-2,1-ethanediyl)))biscarbamate] | 0.1 to 0.99 | 0.24 | – |
| O=C([C@H](O)c1ccccc1)N1CCC[C@H]1c1nc(-c2ccc(Oc3cccc(-c4c[nH]c([C@@H]5CCCN5C(=O)[C@H](O)c5ccccc5)n4)c3)cc2)c[nH]1 [OL-5, (1R)-2-((2S)-2-(4-(3-(4-(2-((2S)-1-((2R)-2-hydroxy-2-phenylacetyl)-2-pyrrolidinyl)-1H-imidazol-4-yl)phenoxy)phenyl)-1H-imidazol-2-yl)-1-pyrrolidinyl)-2-oxo-1-phenylethanol] | 10 to 350 | 80 | – |
| COC(=O)N[C@H](C(=O)N1[C@@H]2C[C@@H]2C[C@H]1c1ncc(-c2ccc(C#Cc3ccc4c(ccc5nc([C@@H]6C[C@H]7C[C@H]7N6C(=O)[C@@H](NC(=O)OC)C(C)C)[nH]c54)c3)cc2)[nH]1)C(C)C [Example D-7, methyl ((1S)-1-(((1R,3S,5R)-3-(4-(4-((2-((1R,3S,5R)-2-((2S)-2-((methoxycarbonyl)amino)-3-methylbutanoyl)-2-azabicyclo[3.1.0]hex-3-yl)-1H-naphtho[1,2-d]imidazol-7-yl)ethynyl)phenyl)-1H-imidazol-2-yl)-2-azabicyclo[3.1.0]hex-2-yl)carbonyl)-2-methylpropyl)carbamate] | 0.002 to 0.099 | – | – |
| COC(=O)N[C@H](C(=O)N1[C@H]2C[C@@]2(C)C[C@H]1c1ncc(-c2ccc(C#Cc3ccc(-c4cnc([C@@H]5C[C@]6(C)C[C@@H]6N5C(=O)[C@@H](NC(=O)OC)C(C)C)[nH]4)cc3)cc2)[nH]1)C(C)C [Example M12.9, methyl ((1S)-1-(((1S,3S,5S)-3-(4-(4-((4-(2-((1S,3S,5S)-2-((2S)-2-((methoxycarbonyl)amino)-3-methylbutanoyl)-5-methyl-2-azabicyclo[3.1.0]hex-3-yl)-1H-imidazol-4-yl)phenyl)ethynyl)phenyl)-1H-imidazol-2-yl)-5-methyl-2-azabicyclo[3.1.0]hex-2-yl)carbonyl)-2-methylpropyl)carbamate] | 0.002 to 0.099 | – | – |
| COC(=O)N[C@H](C(=O)N1[C@@H]2C[C@@H]2C[C@H]1c1nc(-c2ccc(/C=C/c3ccc(-c4c[nH]c([C@@H]5C[C@H]6C[C@H]6N5C(=O)[C@@H](NC(=O)OC)C5CCOCC5)n4)cc3)cc2)c[nH]1)C(C)C [Example M15, methyl ((1S)-2-((1R,3S,5R)-3-(4-(4-((E)-2-(4-(2-((1R,3S,5R)-2-((2S)-2-((methoxycarbonyl)amino)-3-methylbutanoyl)-2-azabicyclo[3.1.0]hex-3-yl)-1H-imidazol-4-yl)phenyl)vinyl)phenyl)-1H-imidazol-2-yl)-2-azabicyclo[3.1.0]hex-2-yl)-2-oxo-1-(tetrahydro-2H-pyran-4-yl)ethyl)carbamate] | 0.002 to 0.099 | – | – |
| CN(C)[C@@H](C(=O)N1CCC[C@H]1c1ncc(-c2ccc(Oc3cccc(-c4cnc([C@@H]5CCCN5C(=O)[C@@H](c5ccccc5)N(C)C)[nH]4)c3)cc2)[nH]1)c1ccccc1 [OL-4, (1R)-2-((2S)-2-(4-(3-(4-(2-((2S)-1-((2R)-2-(dimethylamino)-2-phenylacetyl)-2-pyrrolidinyl)-1H-imidazol-4-yl)phenoxy)phenyl)-1H-imidazol-2-yl)-1-pyrrolidinyl)-N,N-dimethyl-2-oxo-1-phenylethanamine] | 0.002 to 0.099 | 0.07 | – |
| COC(=O)N[C@H](C(=O)N1CC(F)(F)C[C@H]1c1ncc(-c2ccc(C#Cc3ccc(-c4cnc([C@@H]5CC(F)(F)CN5C(=O)[C@@H](NC(=O)OC)C5CCOCC5)[nH]4)cc3)cc2)[nH]1)C1CCOCC1 [Example N2, dimethyl (ethyne-1,2-diylbis(4,1-phenylene-1H-imidazole-5,2-diyl((2S)-4,4-difluoropyrrolidine-2,1-diyl)((1S)-2-oxo-1-(tetrahydro-2H-pyran-4-yl)ethane-2,1-diyl)))biscarbamate] | 0.002 to 0.099 | – | – |
| COC(=O)N[C@H](C(=O)N1C[C@@H](C)C[C@H]1c1nc(Cl)c(-c2ccc(C#Cc3ccc(-c4[nH]c([C@@H]5C[C@H](C)CN5C(=O)[C@@H](NC(=O)OC)C(C)C)nc4Cl)cc3)cc2)[nH]1)C(C)C [Example M12.5] | – | – | 0.002 to 0.099 |
| COC(=O)N[C@H](C(=O)N1CCC[C@H]1c1nc(-c2ccc(C#Cc3ccc(-c4c[nH]c([C@@H]5CCCN5C(=O)[C@@H](NC(=O)OC)C(C)C)n4)cc3)cc2)c[nH]1)C(C)C [Example M1, methyl ((1S)-1-(((2S)-2-(4-(4-((4-(2-((2S)-1-((2S)-2-((methoxycarbonyl)amino)-3-methylbutanoyl)-2-pyrrolidinyl)-1H-imidazol-4-yl)phenyl)ethynyl)phenyl)-1H-imidazol-2-yl)-1-prrolidinyl)carbonyl)-2-methylpropyl)carbamate] | 0.002 to 0.099 | – | – |
| COC(=O)N[C@H](C(=O)N1C[C@@H](C)C[C@H]1c1nc(Cl)c(-c2ccc(C#Cc3ccc(-c4[nH]c([C@@H]5C[C@H](C)CN5C(=O)[C@@H](NC(=O)OC)C5CCOCC5)nc4Cl)cc3)cc2)[nH]1)C1CCOCC1 [Example M12.7, dimethyl (1,2-ethynediylbis(4,1-phenylene(4-chloro-1H-imidazole-5,2-diyl)((2S,4S)-4-methyl-2,1-pyrrolidinediyl)((1S)-2-oxo-1-(tetrahydro-2H-pyran-4-yl)-2,1-ethanediyl)))biscarbamate] | 0.002 to 0.099 | 0.061 | – |
